According to a melting point compilation (Tetko et al.; mined from patent text by program, amines drawn as free bases though some values may be those of a salt):

Row | melting point | SMILES
1 | 69 to 71 °C | CC1(c2ccc([N+](=O)[O-])cc2)OCCO1
2 | 260 to 262 °C | COc1cc(-c2oc3ccccc3c(=O)c2C(=O)O)cc(OC)c1OC
3 | > 300 °C | O=S(=O)(O)c1cccc2c1ccc1nc(O)c(O)nc12
4 | 136 to 140 °C | COC(=O)c1ccc(CN2C(=O)C3(COc4cc5c(cc43)CCO5)c3ccccc32)cc1 (configuration not stated)
5 | 104 to 105 °C | Cc1nnc(-c2cccc(I)c2)o1
6 | 130 to 132 °C | CCCC(C)(C)NC(=O)NC1=CC(=O)OC1
7 | 154 to 156 °C | COc1cc2c(cc1OC)C(=CN1CCN(C)CC1)C(=O)N2
8 | 119 °C | Cc1cccnc1NN
9 | 150 °C | CCOC(=O)c1ccc(NCc2cc3c(cc2O)CCCO3)cc1
10 | 162 °C | CC(C)S(=O)(=O)n1cc(-c2ccc(Oc3ccccc3)cc2)c2c(N)ncnc21
11 | 169 °C | Cc1nc2ccc(N3CC4CNCC4C3)nn2c1-c1ccnc(CN)c1 (configuration not stated)
12 | 74 to 75 °C | CC1CN(c2ccc(N)cc2)C(C)CN1CC(O)(Cn1cncn1)c1ccc(Cl)cc1Cl (configuration not stated)
13 | 146 to 148 °C | CC(C)n1nnc(-c2cnc3ccccn3c2=O)n1
14 | 140 to 142 °C | COC(=O)c1cc2c(Cl)cc(C(=O)OC)c(Cl)c2c(Cl)c1Cl
15 | 280 °C | CS(=O)(=O)N1CCCn2c(nc3c(N)nc4ccccc4c32)C1
16 | 291 to 293 °C | Cc1nc2c3c(c(C(=O)N4CCOCC4)cc2n1C)CCC(c1ccccc1)O3 (configuration not stated)
17 | 274 to 275 °C | CC(C)(C)c1ccc(C(=O)Nc2cn3cc(-n4cccc4)ccc3n2)cc1
18 | 78 to 85 °C | COC(=O)c1ccc(OCCNC(=O)C2Cc3ccccc3N2S(=O)(=O)c2ccc(-c3ccc(F)cc3Cl)cc2)nc1 (configuration not stated)
19 | 41.9 to 42.7 °C | CCCCCCCCCCCCCCCCC[C@@H]1OC[C@@H](COC(=O)CCCCCOS(=O)(=O)c2ccc(C)cc2)O1 (relative stereo)
20 | 80 °C | COc1ccc([C@@]2(C)CNC(=O)O2)cc1OC1CCCC1
21 | 207 to 209 °C | O=C(O)c1cc(-c2ccc(C(F)(F)F)cc2)c2c3c(ccc2c1)OCO3
22 | 214 to 215 °C | COc1ccc2c(c1)C(=O)CCC21CCC(=O)NC1=O (configuration not stated)
23 | 90 to 92 °C | c1ccc(OC(Oc2ccccc2)Oc2c3ccccc3cc3ccccc23)cc1
24 | 148 to 151 °C | C=Cc1cc(C)cc(C)c1CC(=O)N(C)C1(C#N)CCN(OC)CC1

Row | melting point | SMILES
25 | 136 to 138 °C | COc1ccccc1OCC1NC(C)(C)C(C(=O)O)S1 (configuration not stated)
26 | 293 to 294 °C | CNS(=O)(=O)c1cnc2ccc(OC)cc2c1O
27 | 67 to 69 °C | CCC(=O)C(CCCCc1ccc(O)cc1)C(=O)CC
28 | 136 to 138 °C | CCCNC(=O)C1(CCCN2CCC(N3Cc4ccccc4C3=O)CC2)c2ccccc2-c2ccccc21
29 | 174 to 176 °C | O=c1cc2c(nn1-c1ccc(Cl)cc1)-c1ncccc1CC2
30 | 85 to 86 °C | Cc1ccc(-c2[nH]nc(COCCCO)c2-c2ccc(S(N)(=O)=O)cc2)cc1
31 | 89 to 90 °C | COc1ccc(C(C)C(=O)O)cc1[N+](=O)[O-] (configuration not stated)
32 | 152 °C | COc1ccc(-c2nc(Oc3ccc(C)cc3)ncc2C(=O)N2CCOCC2)cc1OC
33 | 153 to 155 °C | CCOC(=O)CCc1nnc(CNC(=O)c2ccc(Cl)c(Cl)c2)n1-c1sc(CC)cc1C(=O)c1ccccc1Cl
34 | 88 to 89 °C | COc1cc(C)c(C(=O)c2ccccc2)c(OC)c1OC
35 | 164 to 166 °C | COC(=O)N(CC(=O)O)C(=O)c1c(Br)ccc2c(C(F)(F)F)c(OC)ccc12
36 | 82 to 85 °C | N#CCC1CCN1C(c1ccccc1)c1ccccc1 (configuration not stated)
37 | 265 °C | CCOC(=O)C1=C(C)NC(C)=C(C#N)C1c1ccnc2ncc(-c3ccccc3)cc12 (configuration not stated)
38 | 119 to 120 °C | Oc1ccc(C(F)(F)F)cc1-n1nc2ccccc2n1
39 | 143 to 144 °C | CCCC(C)(C)C(=O)O[C@H]1C[C@H](O)C=C2C=C[C@H](C)[C@H](CC[C@@H]3C[C@@H](O)CC(=O)O3)[C@H]21
40 | 73 to 75 °C | CCCC(=O)c1cnc2ccc(OC)cc2c1Cl
41 | 112 to 113 °C | CCC(CC)Oc1nc(C)nc(Nc2c(C)cc(C)cc2C)c1[N+](=O)[O-]
42 | 114 to 116 °C | Cc1cc(SCN2C(=O)c3ccccc3C2=O)cc(C(C)(C)C)c1O
43 | 155 to 161 °C | CCCc1nc2c(N)nc(C)c(C)c2n1CCCCN1CCCS1(=O)=O
44 | 159 °C | Cc1cc(O)nc(Oc2cc(C(F)(F)F)nn2C)c1
45 | 128 °C | CC(=O)C(=O)Oc1ccc(NCc2c(F)c(F)c(C(F)(F)F)c(F)c2F)cc1C(=O)O
46 | 135 to 137 °C | O=C(COc1ccc(Cl)cc1Cc1cc(Cl)ccc1O)OCc1ccccc1
47 | 16 to 18 °C | CCOC(=O)c1cccc(OCCCCCCCc2cc(C)no2)c1
48 | 84 to 85 °C | O=C1N(Cc2ccccn2)c2ccccc2C12COc1cc3c(cc12)CCO3 (configuration not stated)

Row | melting point | SMILES
49 | 300 to 301 °C | NC(=O)c1cccc2c1[nH]c1c3cc(Br)ccc3oc21
50 | 128 °C | CC(C)=CCN1Cc2cccc3[nH]c(=S)n(c23)CC1C (configuration not stated)
51 | 55 °C | CCCCc1oc2ccc([N+](=O)[O-])cc2c1C(=O)c1ccc(OCCCCCBr)cc1
52 | 85 to 87 °C | CNc1ccc(C#N)cc1
53 | 58 to 66 °C | O=C(O)CCCCCCCCC1=CC(O)CC1=O (configuration not stated)
54 | 185 to 186 °C | O=C(CO)NCCCn1c(-c2ccc(Br)cc2)csc1=Nc1ccccc1
55 | 186 to 187 °C | CNC1(c2ccccc2Cl)C(=O)Nc2ccc(C)cc21 (configuration not stated)
56 | 75 to 76 °C | CCCCCCCCCCCCCCCC(=O)NC(C)CO (configuration not stated)
57 | 128 to 130 °C | CC(C)Oc1ccc(-c2ccc3nnn(Cc4ccc5ncccc5c4)c3n2)cc1F
58 | 134 to 136 °C | COc1cccc(CSc2c(O)cc(-c3ccccc3)oc2=O)c1
59 | 112 to 113 °C | CCn1nc(OCCCc2ccc(OCCOC)cc2OCc2ccc(C(F)(F)F)cc2)cc1CCC(=O)O
60 | 159 to 160 °C | COc1ccc(CNc2n[nH]cc2C#N)cc1OC1CCCC1
61 | 53 °C | CCOC(=O)c1ccc(Br)cc1-c1ccc(OC)c(OC)c1
62 | 194 to 195 °C | CN1CCN(c2cccc3c2C[C@H](NC(=O)c2ccc(C(=O)c4ccccc4)cc2)CC3)CC1
63 | 159 to 160 °C | COC1CC(NC(=O)C(F)(F)F)C(OCc2ccccc2)C(C)O1 (configuration not stated)
64 | 185 to 186 °C | COc1ccc(-c2c(C(=O)c3ccccc3)c(CSc3nccn3C)nc3cc(OC)c(OC)cc23)cc1OC
65 | 170 to 171 °C | CCOC(=O)c1cnn2c(-c3cccnc3)ccnc12
66 | 195 to 197 °C | O=C(O)Cn1cccc(NC(=O)CCc2ccccc2)c1=O
67 | 300 to 302 °C | O=C(O)c1ccc(C=CC(=O)c2ccc(O)cc2)cc1
68 | 167 to 168 °C | COc1cc(OC)nc(NC(=O)NS(=O)(=O)N=CN(C)CSC)n1
69 | 185 °C | CN1CC(O)=C(C(=O)Nc2ccccn2)N(C)S1(=O)=O
70 | 35 to 37 °C | C#CCOC(=O)c1cc(C)oc1C
71 | 254 to 256 °C | N#Cc1cccc(NCC(=O)Nc2c(Cl)ccc3nc(N4CC[C@@H](O)C4)ccc23)c1
72 | 141 to 149 °C | O=C1N[C@H]2CCN(C(=O)OCc3ccccc3)[C@H]2[C@H]1C1CC1 (relative stereo)
